ChEMBL document CHEMBL6078665, “Structural optimization of naturally derived Ar-turmerone, as novel neuroinflammation suppressors effective in an Alzheimer mouse model” (Bioorg Med Chem, 2025)
pIC50: −log10 of the molar value. The source made the active and inactive calls. The rule behind the calls is not given here.

Key:
BV-2 [1] = assay: Anti-inflammatory activity against LPS-induced mouse BV-2 cells assessed as inhibition rate of LPS-induced […] production at 80 uM pretreated for 1 hr followed by challenged with LPS and measured after 24 hrs incubation by Griess assay; format: functional; conditions: time 25 hrs
[2] = (§1) Cytotoxicity against LPS-induced mouse BV-2 cells assessed as cell survival at 80 uM measured after 24 hrs incubation by MTT assay; format: toxicity, cell-based; conditions: LPS-induced BV-2 cells, read-out: Survival
BV-2 [3] = assay: Anti-inflammatory activity against LPS-induced mouse BV-2 cells assessed as inhibition rate of LPS-induced IL-1beta production pretreated for 1 hr followed by challenged with LPS and measured after 24 hrs incubation by ELISA assay; format: functional, cell-based
Mus musculus [4] = assay: Anti-neuroinflammatory activity against LPS-induced neuronal damage C57BL/6 mouse model assessed as restoration of number of normal neuronal cells in cortex at 100 mg/kg, po measured up to 5 days by Nissl staining based assay; format: functional, organism-based; conditions: time <= 5.0 day
Mus musculus [5] = assay: Anti-neuroinflammatory activity against LPS-induced C57BL/6 mouse model assessed as reversal of LPS-induced IL-1 beta increase in hippocampal homogenate at 100 mg/kg, po measured up to 5 days by ELISA kit; format: functional, organism-based; conditions: time <= 5.0 day
BV-2 [6] = assay: Anti-inflammatory activity against LPS-induced mouse BV-2 cells assessed as inhibition rate of LPS-induced NO production pretreated for 1 hr followed by challenged with LPS and measured after 24 hrs incubation by Griess assay; format: functional, cell-based
Mus musculus [7] = assay: Anti-neuroinflammatory activity against LPS-induced neuronal damage C57BL/6 mouse model assessed as restoration of number of normal neuronal cells in hippocampus at 100 mg/kg, po measured up to 5 days by Nissl staining based assay; format: functional, organism-based; conditions: time <= 5.0 day
Mus musculus [8] = assay: Anti-neuroinflammatory activity against LPS-induced C57BL/6 mouse model assessed as reversal of LPS-induced TNFalpha increase in hippocampal homogenate at 100 mg/kg, po measured up to 5 days by ELISA kit; format: functional, organism-based; conditions: time <= 5.0 day
BV-2 [9] = assay: Anti-inflammatory activity against LPS-induced mouse BV-2 cells assessed as inhibition rate of LPS-induced TNFalpha production pretreated for 1 hr followed by challenged with LPS and measured after 24 hrs incubation by ELISA assay; format: functional, cell-based
Mus musculus [10] = assay: Anti-neuroinflammatory activity against LPS-induced spatial learning in C57BL/6 mouse model assessed as swimming pathway at 100 mg/kg, po measured up to 5 days by Morris water maze test; format: functional, organism-based; conditions: time <= 5.0 day
Mus musculus [11] = assay: Anti-neuroinflammatory activity against LPS-induced spatial learning loss in C57BL/6 mouse model assessed as shortening of escape latency at 100 mg/kg, po measured up to 5 days by Morris water maze test; format: functional, organism-based; conditions: time <= 5.0 day
Mus musculus [12] = assay: Anti-neuroinflammatory activity against LPS-induced C57BL/6 mouse model assessed as reversal of LPS-induced IL-1 beta increase in cortex at 100 mg/kg, po measured up to 5 days by ELISA kit; format: functional, organism-based; conditions: time <= 5.0 day
Mus musculus [13] = assay: Anti-neuroinflammatory activity against LPS-induced C57BL/6 mouse model assessed as reversal of LPS-induced TNFalpha increase in cortex at 100 mg/kg, po measured up to 5 days by ELISA kit; format: functional, organism-based; conditions: time <= 5.0 day
Mus musculus [14] = assay: Anti-neuroinflammatory activity against LPS-induced reference memory loss in C57BL/6 mouse model assessed as increase in number of times cross the target quadrant at 100 mg/kg, po measured up to 5 days by reference memory (probe trial) test; format: functional, organism-based; conditions: time <= 5.0 day
Mus musculus [15] = assay: Anti-neuroinflammatory activity against LPS-induced reference memory loss in C57BL/6 mouse model assessed as increase in time spent in target quadrant at 100 mg/kg, po measured up to 5 days by reference memory (probe trial) test; format: functional, organism-based; conditions: time <= 5.0 day
BV-2 [16] = assay: as §1; format: toxicity, cell-based; conditions: bv-2, 24 h, 80 µM

SMILES	inhibition at 80 µM (BV-2 [1]) [%]	viability at 24 h, 80 µM [2] [%]	pIC50 (BV-2 [3])	pIC50 (BV-2 [6])	pIC50 (BV-2 [9])	also measured
CC(C)=CC(=O)NC(C)c1ccc(Cl)cc1 (centres undefined)	38	> 80	–	–	–	–
CC(C)=CC(=O)CC(C)c1ccc(C(F)(F)F)cc1 (centres undefined)	26.8	> 80	–	–	–	–
CC(C)=CC(=O)C[C@H](C)c1ccc(C)cc1	–	> 80	4.73	4.60	4.40	Activity (Mus musculus [4]): Active; Activity (Mus musculus [5]): Active; Activity (Mus musculus [7]): Active; Activity (Mus musculus [8]): Active
CC(C)=CC(=O)NC(C)c1ccccc1 (centres undefined)	22.3	–	–	–	–	–
CC(C)=CC(=O)OC(C)c1ccc2ccccc2c1 (centres undefined)	7.97	> 80	–	–	–	–
CC(C)=CC(=O)OC(C)c1ccc(C(F)(F)F)cc1 (centres undefined)	28.2	> 80	–	–	–	–
CC(C)=CC(=O)NC(C)c1ccc2ccccc2c1 (centres undefined)	60.1	> 80	4.49	4.35	4.61	Activity (Mus musculus [10]): Active; Activity (Mus musculus [4]): Active; Compound Exhibited Superior Effect Compared To Ar-Turmerone And Ttp488; Activity (Mus musculus [5]): Active; Activity (Mus musculus [11]): Active; Activity (Mus musculus [12]): Active; Activity (Mus musculus [13]): Active; Activity (Mus musculus [14]): Active; Activity (Mus musculus [7]): Active; Compound Exhibited Superior Effect Compared To Ar-Turmerone And Ttp488; Activity (Mus musculus [8]): Active; Activity (Mus musculus [15]): Active
CC(C)=CC(=O)CC(c1ccc(C)cc1)c1ccc(F)cc1 (centres undefined)	8.15	> 80	–	–	–	–
CC(C)=CC(=O)CC(c1ccc(F)cc1)c1ccc(-c2ccccc2)cc1 (centres undefined)	29.3	–	–	–	–	Activity (BV-2 [16]): Non-toxic
CC(C)=CC(=O)CC(C)c1ccccc1Cl (centres undefined)	47.7	> 80	–	–	–	–
CC(C)=CC(=O)OC(C)c1ccccc1 (centres undefined)	24.9	–	–	–	–	–
CC(C)=CC(=O)OC(C)c1ccc(-c2ccccc2)cc1 (centres undefined)	44.5	> 80	–	–	–	–
CCCc1ccc(CNC(=O)C=C(C)C)cc1	59.8	> 80	4.36	4.31	4.27	–
CC(C)=CC(=O)CC(c1ccc(F)cc1)c1ccc(C(F)(F)F)cc1 (centres undefined)	19.1	> 80	–	–	–	–
CC(C)=CC(=O)NC(C)c1ccc(C(F)(F)F)cc1 (centres undefined)	28	> 80	–	–	–	–
CC(C)=CC(=O)CC(c1ccc(C)cc1)C(C)C (centres undefined)	71	> 80	4.37	4.51	4.33	–
CC(C)=CC(=O)NC(c1ccccc1)c1ccc(C)cc1 (centres undefined)	71	> 80	4.27	4.52	4.30	Activity (Mus musculus [10]): Active; Activity (Mus musculus [5]): Active; Compound Exhibited Superior Effect Compared To Ar-Turmerone; Activity (Mus musculus [11]): Active; Activity (Mus musculus [8]): Active; Compound Exhibited Superior Effect Compared To Ar-Turmerone
CC(C)=CC(=O)NC(C)c1ccc(C)cc1 (centres undefined)	79.8	> 80	4.85	4.76	4.56	Activity (Mus musculus [10]): Active; Activity (Mus musculus [5]): Active; Activity (Mus musculus [11]): Active; Activity (Mus musculus [12]): Active; Activity (Mus musculus [13]): Active; Activity (Mus musculus [8]): Active
CC(C)=CC(=O)CC(C)c1ccc(-c2ccccc2)cc1 (centres undefined)	18.9	–	–	–	–	Activity (BV-2 [16]): Non-toxic
CC(C)=CC(=O)C[C@@H](C)c1ccc(C)cc1	–	–	4.64	4.54	4.39	–
CC(C)=CC(=O)OC(C)c1ccc(Cl)cc1 (centres undefined)	15.8	> 80	–	–	–	–
CC(C)=CC(=O)OC(C)c1ccc(C)cc1 (centres undefined)	64.5	> 80	4.47	4.37	4.55	Activity (Mus musculus [10]): Active; Activity (Mus musculus [5]): Active; Activity (Mus musculus [11]): Active; Activity (Mus musculus [8]): Active
CCCC(OC(=O)C=C(C)C)c1ccc(-c2ccccc2)cc1 (centres undefined)	14.9	> 80	–	–	–	–
CC(C)=CC(=O)NC(C)c1ccc(-c2ccccc2)cc1 (centres undefined)	16.9	–	–	–	–	Activity (BV-2 [16]): Non-toxic
CCCCc1nc(-c2ccc(OCCCN(CC)CC)cc2)cn1-c1ccc(Oc2ccc(Cl)cc2)cc1	–	–	–	–	–	Activity (Mus musculus [5]): Active; Activity (Mus musculus [14]): Active; Activity (Mus musculus [8]): Active; Activity (Mus musculus [15]): Active
CC(C)=CC(=O)CC(c1ccc(-c2ccccc2)cc1)C(C)C (centres undefined)	69.7	–	4.25	4.58	4.29	Activity (BV-2 [16]): Non-toxic
CC(C)=CC(=O)CC(C)c1ccc(C)cc1 (racemic)	81.5	> 80	4.71	4.52	4.37	–
